Earlier results in article PMC10381184, “Unprecedented Antimicrobial and Cytotoxic Polyketides from Cultures of Diaporthe africana sp. nov” (Journal of Fungi, 2023).

Test system: MptpB
Details: result in words; ref 63 (Cui et al.); cited from earlier work

Compound: CC(C)=CCc1ccc(O)c2c1[C@H](c1cc(C)cc3c1O[C@H](C(C)(C)O)CO3)NC2=O [diaporisoindole B]
- inhibitory activity against MptpB: failed to show any activity
